Converted amounts (≈) assume the structure as drawn. Like-named read-outs stand apart in the source and are kept apart here.
Key:
Format in all cases: cell-based
[1] = system: Vancomycin-sensitive E. faecium (ATCC 19634); experiment: MIC, micro-dilution broth, VSE; details: read-out: MIC VSE
Description: (§1) All test compounds were assayed in a micro-dilution broth format. Stock solutions were made by serially diluting the compounds using autoclaved millipore water or broth media. The antibacterial activity of the compounds was determined against methicillin-sensitive S. aureus (MSSA), methicillin-resistant S. aureus (MRSA), vancomycin-intermediate-resistant S. aureus (VISA), vancomycin-sensitive E. faecium (VSE) and vancomycin-resistant E. faecium (VRE). Bacteria, to be tested, were grown for about 10 h in the suitable media, MSSA, MRSA and VISA were grown in yeast-dextrose broth (about 1 g of beef extract, about 2 g of yeast extract, about 5 g of peptone and about 5 g of NaCl in about 1000 mL of sterile distilled water (pH-7)). For solid media, about 5% agar was used along with above mentioned composition. VSE and VRE were cultured in brain heart infusion broth (Himedia). The bacterial samples were freeze dried and stored at −80° C. About 5 μL of these stocks were added to about 3 mL of the nutrient broth and the culture was grown for about 6 h at about 37° C. prior to the experiments. This 6 h grown culture gives about 10^9 cfu/mL and this was determined by spread plating method. The 6 h grown culture was diluted to give effective cell concentration of about 10^5 cfu/mL which was then used for determining MIC. Compounds were serially diluted, in sterile water (2 fold dilution is employed) in a way that the working concentration was about 10 μM for MSSA, MRSA, and VSE while for VRE and VISA it was about 100 μM. About 50 μL of these serial dilutions were added to the wells of 96 well plate followed by the addition of about 150 μL of bacterial solution. The plates were then incubated at about 37° C., 150 rpm in the incubator and O.D at 600 nm was recorded at an interval of about 10 h and 24 h using TECAN (Infinite series, M200 pro) Plate Reader. Each concentration had triplicate values and the whole experiment was done at least twice and the MIC value was determined by taking the average of triplicate. O. D. values for each concentration and plotting it against concentration. The data was then subjected to sigmoidal fitting. From the curve the MIC value was determined, as the point in the curve where the O. D. was similar to that of control having no bacteria.

[2] = system: Vancomycin-resistant E. faecium (VanA, ATCC 51559); experiment: MIC, micro-dilution broth, VRE (VanA); details: E. faecium ATCC 51559, read-out: MIC VRE (VanA)
Description: as §1

[3] = system: Methicillin-sensitive S. aureus (MTCC 737); experiment: MIC, micro-dilution broth, MSSA; details: MTCC 737, read-out: MIC MSSA
Description: as §1

[4] = system: Methicillin-resistant S. aureus (ATCC 33591); experiment: MIC, micro-dilution broth, MRSA; details: ATCC 33591, read-out: MIC MRSA
Description: as §1

[5] = system: Vancomycin intermediate resistant S. aureus; experiment: MIC, micro-dilution broth, VISA; details: read-out: MIC VISA
Description: as §1

[6] = system: Vancomycin-resistant E. faecalis (VanA, ATCC 51575); experiment: MIC, micro-dilution broth, VRE (VanB); details: Enterococcus faecalis; E. faecalis ATCC 51575; read-out: MIC VRE (VanB)
[7] = system: methicillin-resistant S. aureus clinical isolate; experiment: MIC, clinical isolate of methicillin-resistant S. aureus; details: Staphylococcus aureus, read-out: MIC S. aureus
Description: as §1

[8] = system: methicillin-resistant S. haemolyticus clinical isolate; experiment: MIC, clinical isolate of methicillin-resistant S. haemolyticus; details: Staphylococcus haemolyticus; clinical isolate, methicillin-resistant; read-out: MIC S. haemolyticus
[9] = system: methicillin-resistant S. epidermidis clinical isolate; experiment: MIC, clinical isolate of methicillin-resistant S. epidermidis; details: Staphylococcus epidermidis, read-out: MIC S. epidermidis
[10] = Enterococcus faecium, ATCC19634, ATCC 19634

Compound | MIC [1, 10] [µM] | MIC ([2]; Enterococcus faecium) [µM] | MIC ([3]; Staphylococcus aureus) [µM] | MIC ([4]; Staphylococcus aureus) [µM] | MIC ([5]; Staphylococcus aureus, VISA) [µM] | MIC [6] [µM] | MIC ([1]; ATCC 19634) [µM] | MIC [2] [µM] | MIC [3] [µM] | MIC [4] [µM] | MIC [5] [µM] | MIC [7] [µM] | MIC [8] [µM] | MIC [9] [µM]
CN[C@H](CC(C)C)C(=O)N[C@H]1C(=O)N[C@@H](CC(N)=O)C(=O)N[C@H]2C(=O)N[C@H]3C(=O)N[C@H](C(=O)N[C@H](C(=O)NCCCNC(=O)[C@H](O)[C@@H](O)[C@H](OC4OC(CO)C(O)C(O)C4O)[C@H](O)CO)c4cc(O)cc(O)c4-c4cc3ccc4O)[C@H](O)c3ccc(c(Cl)c3)Oc3cc2cc(c3O[C@H]2OC(CO)[C@H](O)C(O)C2O[C@H]2C[C@@](C)(N)[C@H](O)C(C)O2)Oc2ccc(cc2Cl)[C@H]1O (stereo partly drawn) [Compound 4] | 0.4 (≈ 0.738 µg/mL) | 36 (≈ 66.4 µg/mL) | 0.3 (≈ 0.554 µg/mL) | 0.38 (≈ 0.701 µg/mL) | 0.3 (≈ 0.554 µg/mL) | – | – | – | – | – | – | – | – | –
CN[C@H](CC(C)C)C(=O)N[C@H]1C(=O)N[C@@H](CC(N)=O)C(=O)N[C@H]2C(=O)N[C@H]3C(=O)N[C@H](C(=O)N[C@H](C(=O)NCCCNC(=O)[C@H](O)[C@@H](O)[C@H](O)[C@H](O)CO)c4cc(O)cc(O)c4-c4cc3ccc4O)[C@H](O)c3ccc(c(Cl)c3)Oc3cc2cc(c3O[C@H]2OC(CO)[C@H](O)C(O)C2O[C@H]2C[C@@](C)(N)[C@H](O)C(C)O2)Oc2ccc(cc2Cl)[C@H]1O (stereo partly drawn) [Compound 3] | 0.5 (≈ 0.842 µg/mL) | 54 (≈ 90.9 µg/mL) | 0.6 (≈ 1.01 µg/mL) | 0.7 (≈ 1.18 µg/mL) | 0.88 (≈ 1.48 µg/mL) | – | – | – | – | – | – | – | – | –
CCCCCCCCN[C@]1(C)C[C@H](OC2C(O)[C@@H](O)C(CO)O[C@@H]2Oc2c3cc4cc2Oc2ccc(cc2Cl)[C@@H](O)[C@@H](NC(=O)[C@@H](CC(C)C)NC)C(=O)N[C@@H](CC(N)=O)C(=O)N[C@H]4C(=O)N[C@H]2C(=O)N[C@H](C(=O)N[C@H](C(=O)O)c4cc(O)cc(O)c4-c4cc2ccc4O)[C@H](O)c2ccc(c(Cl)c2)O3)OC(C)[C@@H]1O (stereo partly drawn) [Compound 15] | 0.4 (≈ 0.625 µg/mL) | 25 (≈ 39 µg/mL) | 0.3 (≈ 0.468 µg/mL) | 0.3 (≈ 0.468 µg/mL) | 0.4 (≈ 0.625 µg/mL) | 12.5 (≈ 19.5 µg/mL) | – | – | – | – | – | – | – | –
CN[C@H](CC(C)C)C(=O)N[C@H]1C(=O)N[C@@H](CC(N)=O)C(=O)N[C@H]2C(=O)N[C@H]3C(=O)N[C@H](C(=O)N[C@H](C(=O)NCCCNCC(O)C(O)C(OC4OC(CO)C(O)C(O)C4O)C(O)CO)c4cc(O)cc(O)c4-c4cc3ccc4O)[C@H](O)c3ccc(c(Cl)c3)Oc3cc2cc(c3O[C@H]2OC(CO)[C@H](O)C(O)C2O[C@H]2C[C@@](C)(N)[C@H](O)C(C)O2)Oc2ccc(cc2Cl)[C@H]1O (stereo partly drawn) [Compound 5] | 0.66 (≈ 1.21 µg/mL) | > 100 | 1 (≈ 1.83 µg/mL) | 1 (≈ 1.83 µg/mL) | 1.08 (≈ 1.98 µg/mL) | – | – | – | – | – | – | – | – | –
CN[C@H](CC(C)C)C(=O)N[C@H]1C(=O)N[C@@H](CC(N)=O)C(=O)N[C@H]2C(=O)N[C@H]3C(=O)N[C@H](C(=O)N[C@H](C(=O)NCCCNCC(O)C(O)C(OC4OC(CO)C(O)C(O)C4O)C(O)CO)c4cc(O)cc(O)c4-c4cc3ccc4O)[C@H](O)c3ccc(c(Cl)c3)Oc3cc2cc(c3O[C@H]2OC(CO)[C@H](O)C(O)C2O[C@H]2C[C@@](C)(N)[C@H](O)C(C)O2)Oc2ccc(cc2Cl)[C@H]1O (stereo partly drawn) [Compound 6] | – | – | – | – | – | – | 0.5 (≈ 0.916 µg/mL) | >100 | 1.0 (≈ 1.83 µg/mL) | 1.0 (≈ 1.83 µg/mL) | 0.99 (≈ 1.81 µg/mL) | – | – | –
CN[C@H](CC(C)C)C(=O)N[C@H]1C(=O)N[C@@H](CC(N)=O)C(=O)N[C@H]2C(=O)N[C@H]3C(=O)N[C@H](C(=O)N[C@H](C(=O)NCCOC4OC(CO)C(O)C(O)C4O)c4cc(O)cc(O)c4-c4cc3ccc4O)[C@H](O)c3ccc(c(Cl)c3)Oc3cc2cc(c3O[C@H]2OC(CO)[C@H](O)C(O)C2O[C@H]2C[C@@](C)(N)[C@H](O)C(C)O2)Oc2ccc(cc2Cl)[C@H]1O (stereo partly drawn) [Compound 2] | – | – | – | – | – | – | 1.2 (≈ 1.99 µg/mL) | >100 | 1.2 (≈ 1.99 µg/mL) | 1.4 (≈ 2.32 µg/mL) | 2.02 (≈ 3.34 µg/mL) | – | – | –
CCCCCCCCN[C@]1(C)C[C@H](OC2C(O)[C@@H](O)C(CO)O[C@@H]2Oc2c3cc4cc2Oc2ccc(cc2Cl)[C@@H](O)[C@@H](NC(=O)[C@@H](CC(C)C)NC)C(=O)N[C@@H](CC(N)=O)C(=O)N[C@H]4C(=O)N[C@H]2C(=O)N[C@H](C(=O)N[C@H](C(=O)NCCCNC(=O)[C@H](O)[C@@H](O)[C@H](OC4OC(CO)C(O)C(O)C4O)[C@H](O)CO)c4cc(O)cc(O)c4-c4cc2ccc4O)[C@H](O)c2ccc(c(Cl)c2)O3)OC(C)[C@@H]1O (stereo partly drawn) [Compound 17] | 0.2 (≈ 0.392 µg/mL) | 2 (≈ 3.92 µg/mL) | 0.2 (≈ 0.392 µg/mL) | 0.3 (≈ 0.587 µg/mL) | 0.31 (≈ 0.607 µg/mL) | 6.2 (≈ 12.1 µg/mL) | – | – | – | – | – | 0.2 (≈ 0.392 µg/mL) | 0.4 (≈ 0.783 µg/mL) | 0.3 (≈ 0.587 µg/mL)
CCCCCCCCCCCCN[C@]1(C)C[C@H](OC2C(O)[C@@H](O)C(CO)O[C@@H]2Oc2c3cc4cc2Oc2ccc(cc2Cl)[C@@H](O)[C@@H](NC(=O)[C@@H](CC(C)C)NC)C(=O)N[C@@H](CC(N)=O)C(=O)N[C@H]4C(=O)N[C@H]2C(=O)N[C@H](C(=O)N[C@H](C(=O)NCCCNC(=O)[C@H](O)[C@@H](O)[C@H](OC4OC(CO)C(O)C(O)C4O)[C@H](O)CO)c4cc(O)cc(O)c4-c4cc2ccc4O)[C@H](O)c2ccc(c(Cl)c2)O3)OC(C)[C@@H]1O (stereo partly drawn) [Compound 18] | 0.2 (≈ 0.403 µg/mL) | 0.8 (≈ 1.61 µg/mL) | 0.2 (≈ 0.403 µg/mL) | 0.3 (≈ 0.604 µg/mL) | 0.22 (≈ 0.443 µg/mL) | 1 (≈ 2.01 µg/mL) | – | – | – | – | – | 0.3 (≈ 0.604 µg/mL) | 0.5 (≈ 1.01 µg/mL) | 0.35 (≈ 0.705 µg/mL)
CCCCCCCCCCN[C@]1(C)C[C@H](OC2C(O)[C@@H](O)C(CO)O[C@@H]2Oc2c3cc4cc2Oc2ccc(cc2Cl)[C@@H](O)[C@@H](NC(=O)[C@@H](CC(C)C)NC)C(=O)N[C@@H](CC(N)=O)C(=O)N[C@H]4C(=O)N[C@H]2C(=O)N[C@H](C(=O)N[C@H](C(=O)O)c4cc(O)cc(O)c4-c4cc2ccc4O)[C@H](O)c2ccc(c(Cl)c2)O3)OC(C)[C@@H]1O (stereo partly drawn) [Compound 8] | 0.2 (≈ 0.318 µg/mL) | 14 (≈ 22.3 µg/mL) | 0.3 (≈ 0.477 µg/mL) | 0.3 (≈ 0.477 µg/mL) | 0.32 (≈ 0.509 µg/mL) | 6.2 (≈ 9.86 µg/mL) | – | – | – | – | – | – | – | –
CCCCCCCCCCCCN[C@]1(C)C[C@H](OC2C(O)[C@@H](O)C(CO)O[C@@H]2Oc2c3cc4cc2Oc2ccc(cc2Cl)[C@@H](O)[C@@H](NC(=O)[C@@H](CC(C)C)NC)C(=O)N[C@@H](CC(N)=O)C(=O)N[C@H]4C(=O)N[C@H]2C(=O)N[C@H](C(=O)N[C@H](C(=O)O)c4cc(O)cc(O)c4-c4cc2ccc4O)[C@H](O)c2ccc(c(Cl)c2)O3)OC(C)[C@@H]1O (stereo partly drawn) [Compound 16] | 0.2 (≈ 0.324 µg/mL) | 7 (≈ 11.3 µg/mL) | 0.3 (≈ 0.485 µg/mL) | 0.3 (≈ 0.485 µg/mL) | 0.3 (≈ 0.485 µg/mL) | 3.1 (≈ 5.01 µg/mL) | – | – | – | – | – | – | – | –
CN[C@H](CC(C)C)C(=O)N[C@H]1C(=O)N[C@@H](CC(N)=O)C(=O)N[C@H]2C(=O)N[C@H]3C(=O)N[C@H](C(=O)N[C@H](C(=O)NCCOC4OC(CO)C(O)C(O)C4O)c4cc(O)cc(O)c4-c4cc3ccc4O)[C@H](O)c3ccc(c(Cl)c3)Oc3cc2cc(c3O[C@H]2OC(CO)[C@H](O)C(O)C2O[C@H]2C[C@@](C)(N)[C@H](O)C(C)O2)Oc2ccc(cc2Cl)[C@H]1O (stereo partly drawn) [Compound 1] | 0.6 (≈ 0.993 µg/mL) | > 100 | 1.4 (≈ 2.32 µg/mL) | 1.2 (≈ 1.99 µg/mL) | 2.4 (≈ 3.97 µg/mL) | – | – | – | – | – | – | – | – | –
